Results on 22 compounds are retold here after US20140128599A1, “BENZOXAZOLE KINASE INHIBITORS AND METHODS OF USE” (Intellikine LLC La Jolla, priority 2008, published 2014).

What all share (type): biochemical
The target in one assay is T1, PI3K γ (Homo sapiens, UniProt P48736).
T1 construct: purchased Sigma
Kind of assay: PI3K kinase inhibition assay (p110γ).

The next assay concerns the target T2, PI3K δ (Homo sapiens, UniProt O00329).
T2 construct: purchased Upstate
Nature of the assay: PI3K kinase inhibition assay (p110δ/p85α).

A further assay addresses T3, mTOR (Homo sapiens, UniProt P42345).
T3 construct: purchased Invitrogen
Nature of the assay: mTOR kinase inhibition assay.

The target in another assay is T4, PI3K β (Homo sapiens, UniProt P42338).
T4 construct: purchased Upstate
Nature of the assay: PI3K kinase inhibition assay (p110β/p85α).

The next assay has as its target T5, PI3K α (Homo sapiens, UniProt P42336).
T5 construct: purchased Upstate
Nature of the assay: PI3K kinase inhibition assay (p110α/p85α).

Bounds are passed on as bounds.

T4 sequence (P42338 whole entry): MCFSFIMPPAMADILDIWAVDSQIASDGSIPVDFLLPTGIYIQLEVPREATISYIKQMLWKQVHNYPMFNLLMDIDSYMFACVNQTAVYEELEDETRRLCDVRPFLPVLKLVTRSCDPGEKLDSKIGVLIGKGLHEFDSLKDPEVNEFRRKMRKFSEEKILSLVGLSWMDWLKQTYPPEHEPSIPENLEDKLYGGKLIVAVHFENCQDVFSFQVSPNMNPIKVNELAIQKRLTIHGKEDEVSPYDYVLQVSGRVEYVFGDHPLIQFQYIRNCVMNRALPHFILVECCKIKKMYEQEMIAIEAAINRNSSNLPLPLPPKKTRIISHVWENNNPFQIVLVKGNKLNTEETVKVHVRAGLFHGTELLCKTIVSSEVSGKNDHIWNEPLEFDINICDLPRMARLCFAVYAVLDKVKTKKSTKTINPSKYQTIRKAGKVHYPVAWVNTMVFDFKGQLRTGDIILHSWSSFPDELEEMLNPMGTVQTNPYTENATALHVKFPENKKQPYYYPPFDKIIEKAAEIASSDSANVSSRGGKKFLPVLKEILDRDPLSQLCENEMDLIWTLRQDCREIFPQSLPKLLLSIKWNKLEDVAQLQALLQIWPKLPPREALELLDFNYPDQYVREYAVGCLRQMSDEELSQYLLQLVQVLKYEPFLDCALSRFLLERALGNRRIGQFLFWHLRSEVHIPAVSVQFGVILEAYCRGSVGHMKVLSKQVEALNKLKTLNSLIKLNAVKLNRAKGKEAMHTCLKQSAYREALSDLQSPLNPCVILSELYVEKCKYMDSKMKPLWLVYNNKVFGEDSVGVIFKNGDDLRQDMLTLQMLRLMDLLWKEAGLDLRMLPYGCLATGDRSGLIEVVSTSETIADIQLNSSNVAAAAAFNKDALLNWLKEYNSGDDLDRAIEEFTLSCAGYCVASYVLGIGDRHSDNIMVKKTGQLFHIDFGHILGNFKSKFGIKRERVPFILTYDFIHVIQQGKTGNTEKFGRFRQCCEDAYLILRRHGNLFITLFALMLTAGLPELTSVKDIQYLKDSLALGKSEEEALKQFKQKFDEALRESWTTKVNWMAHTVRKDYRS
T4 sequence (P27986 whole entry partner): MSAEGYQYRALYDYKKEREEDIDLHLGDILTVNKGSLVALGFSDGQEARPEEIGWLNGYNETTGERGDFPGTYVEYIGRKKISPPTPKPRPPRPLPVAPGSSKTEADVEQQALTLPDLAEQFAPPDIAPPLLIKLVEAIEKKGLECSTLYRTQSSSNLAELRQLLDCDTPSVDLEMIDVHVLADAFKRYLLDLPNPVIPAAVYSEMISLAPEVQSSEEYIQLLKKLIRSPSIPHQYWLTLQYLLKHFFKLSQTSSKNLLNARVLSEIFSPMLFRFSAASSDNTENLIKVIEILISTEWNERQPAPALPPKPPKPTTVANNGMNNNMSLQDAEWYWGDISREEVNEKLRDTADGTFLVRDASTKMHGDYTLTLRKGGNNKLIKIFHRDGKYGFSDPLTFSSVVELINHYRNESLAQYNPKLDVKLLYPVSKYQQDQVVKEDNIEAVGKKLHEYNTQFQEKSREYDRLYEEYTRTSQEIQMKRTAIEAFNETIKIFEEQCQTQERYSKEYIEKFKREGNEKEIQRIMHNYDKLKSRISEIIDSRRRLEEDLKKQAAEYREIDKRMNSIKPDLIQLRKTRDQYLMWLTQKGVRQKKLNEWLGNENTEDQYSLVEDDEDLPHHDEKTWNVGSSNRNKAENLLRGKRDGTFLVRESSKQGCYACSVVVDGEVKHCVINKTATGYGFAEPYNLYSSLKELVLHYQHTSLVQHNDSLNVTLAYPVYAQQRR
T2 sequence (O00329 whole entry): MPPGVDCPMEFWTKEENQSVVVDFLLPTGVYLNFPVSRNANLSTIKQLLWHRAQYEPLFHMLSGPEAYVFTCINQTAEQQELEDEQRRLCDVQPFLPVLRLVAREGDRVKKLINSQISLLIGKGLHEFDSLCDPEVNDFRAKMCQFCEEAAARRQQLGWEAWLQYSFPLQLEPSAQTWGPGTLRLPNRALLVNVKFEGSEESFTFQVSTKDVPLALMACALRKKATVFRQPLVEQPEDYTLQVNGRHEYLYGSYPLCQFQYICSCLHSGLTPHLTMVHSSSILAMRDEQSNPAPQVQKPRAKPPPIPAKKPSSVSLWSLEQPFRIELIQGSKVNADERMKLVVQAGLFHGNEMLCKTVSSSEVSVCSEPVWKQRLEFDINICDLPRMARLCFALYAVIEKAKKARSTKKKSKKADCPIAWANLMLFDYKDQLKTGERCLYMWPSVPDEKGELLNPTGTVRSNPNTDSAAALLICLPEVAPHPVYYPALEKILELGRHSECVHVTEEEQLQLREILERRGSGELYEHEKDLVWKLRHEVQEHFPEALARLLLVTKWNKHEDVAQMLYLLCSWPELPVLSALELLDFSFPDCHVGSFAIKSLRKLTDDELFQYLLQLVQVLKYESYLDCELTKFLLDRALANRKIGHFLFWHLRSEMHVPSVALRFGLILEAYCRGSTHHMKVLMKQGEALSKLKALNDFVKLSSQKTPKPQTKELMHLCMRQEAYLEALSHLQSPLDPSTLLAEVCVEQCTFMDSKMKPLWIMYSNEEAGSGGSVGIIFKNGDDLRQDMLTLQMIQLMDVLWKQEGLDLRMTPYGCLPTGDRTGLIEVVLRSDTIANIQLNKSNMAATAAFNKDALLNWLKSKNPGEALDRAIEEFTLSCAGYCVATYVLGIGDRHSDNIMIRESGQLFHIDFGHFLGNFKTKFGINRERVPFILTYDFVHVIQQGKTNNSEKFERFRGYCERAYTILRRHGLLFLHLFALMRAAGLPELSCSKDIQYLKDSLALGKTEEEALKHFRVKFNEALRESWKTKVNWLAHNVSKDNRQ
T2 sequence (P27986 whole entry partner): as the sequence (P27986 whole entry partner) above
T1 sequence (P48736 whole entry): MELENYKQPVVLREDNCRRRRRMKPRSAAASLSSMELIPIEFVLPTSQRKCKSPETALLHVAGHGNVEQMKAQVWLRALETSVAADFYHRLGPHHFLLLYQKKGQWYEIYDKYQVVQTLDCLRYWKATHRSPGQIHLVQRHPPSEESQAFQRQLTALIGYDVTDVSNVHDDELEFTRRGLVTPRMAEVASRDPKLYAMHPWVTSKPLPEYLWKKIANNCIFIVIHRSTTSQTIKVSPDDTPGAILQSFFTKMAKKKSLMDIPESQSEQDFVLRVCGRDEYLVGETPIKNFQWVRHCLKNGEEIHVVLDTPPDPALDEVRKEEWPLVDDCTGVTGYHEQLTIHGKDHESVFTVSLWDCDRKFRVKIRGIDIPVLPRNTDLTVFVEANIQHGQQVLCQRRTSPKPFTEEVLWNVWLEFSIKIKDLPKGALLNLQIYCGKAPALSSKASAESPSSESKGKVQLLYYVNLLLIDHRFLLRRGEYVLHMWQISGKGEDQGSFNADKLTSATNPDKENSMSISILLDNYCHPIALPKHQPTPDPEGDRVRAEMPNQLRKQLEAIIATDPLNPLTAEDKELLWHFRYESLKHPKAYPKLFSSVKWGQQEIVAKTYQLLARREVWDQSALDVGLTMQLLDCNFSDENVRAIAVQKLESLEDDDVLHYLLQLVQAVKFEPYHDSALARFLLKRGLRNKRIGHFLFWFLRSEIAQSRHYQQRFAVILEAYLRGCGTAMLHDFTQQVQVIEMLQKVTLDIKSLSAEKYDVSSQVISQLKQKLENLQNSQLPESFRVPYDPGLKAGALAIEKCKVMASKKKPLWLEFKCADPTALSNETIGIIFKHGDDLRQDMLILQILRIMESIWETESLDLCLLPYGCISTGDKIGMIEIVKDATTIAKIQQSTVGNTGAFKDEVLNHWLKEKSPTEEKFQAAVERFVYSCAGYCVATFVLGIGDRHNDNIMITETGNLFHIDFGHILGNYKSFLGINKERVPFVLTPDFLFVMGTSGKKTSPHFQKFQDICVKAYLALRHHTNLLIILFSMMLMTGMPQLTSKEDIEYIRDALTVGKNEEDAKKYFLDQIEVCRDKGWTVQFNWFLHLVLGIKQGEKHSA
T5 sequence (P42336 whole entry): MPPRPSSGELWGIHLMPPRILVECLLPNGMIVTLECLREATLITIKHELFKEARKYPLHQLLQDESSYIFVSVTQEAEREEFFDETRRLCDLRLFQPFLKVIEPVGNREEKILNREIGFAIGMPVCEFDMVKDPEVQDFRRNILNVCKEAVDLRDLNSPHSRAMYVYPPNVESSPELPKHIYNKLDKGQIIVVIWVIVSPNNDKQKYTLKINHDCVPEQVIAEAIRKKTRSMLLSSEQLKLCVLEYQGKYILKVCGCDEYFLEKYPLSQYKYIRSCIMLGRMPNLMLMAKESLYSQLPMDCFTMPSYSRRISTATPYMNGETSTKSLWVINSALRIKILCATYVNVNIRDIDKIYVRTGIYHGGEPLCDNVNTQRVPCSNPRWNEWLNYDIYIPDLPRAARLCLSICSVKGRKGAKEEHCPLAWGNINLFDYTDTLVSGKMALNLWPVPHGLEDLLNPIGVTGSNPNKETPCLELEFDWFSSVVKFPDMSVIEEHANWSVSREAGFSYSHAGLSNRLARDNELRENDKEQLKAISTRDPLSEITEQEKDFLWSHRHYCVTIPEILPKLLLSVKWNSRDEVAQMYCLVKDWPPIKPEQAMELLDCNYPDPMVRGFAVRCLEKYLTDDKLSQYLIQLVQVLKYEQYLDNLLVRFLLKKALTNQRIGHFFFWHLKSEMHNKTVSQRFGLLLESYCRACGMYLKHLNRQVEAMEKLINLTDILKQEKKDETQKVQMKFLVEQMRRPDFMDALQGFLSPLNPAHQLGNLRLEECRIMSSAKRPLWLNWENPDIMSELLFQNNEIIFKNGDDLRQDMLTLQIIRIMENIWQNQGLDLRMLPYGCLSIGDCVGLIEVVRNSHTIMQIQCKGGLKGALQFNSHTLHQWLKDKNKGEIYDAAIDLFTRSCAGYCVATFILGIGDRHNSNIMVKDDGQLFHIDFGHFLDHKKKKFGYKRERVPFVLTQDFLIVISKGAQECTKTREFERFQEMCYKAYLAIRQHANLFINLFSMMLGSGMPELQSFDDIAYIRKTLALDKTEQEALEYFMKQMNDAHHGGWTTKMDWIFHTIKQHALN
T5 sequence (P27986 whole entry partner): as the sequence (P27986 whole entry partner) above
Description for PI3K γ: IC50 values are measured using either a standard TLC assay for lipid kinase activity (described below) or a high-throughput membrane capture assay. Kinase reactions are performed by preparing a reaction mixture containing kinase, inhibitor (2% DMSO final concentration), buffer (25 mM HEPES, pH 7.4, 10 mM MgCl2), and freshly sonicated phosphatidylinositol (100 μg/ml). Reactions are initiated by the addition of ATP containing 10 μCi of γ-32P-ATP to a final concentration 10 or 100 μM and allowed to proceed for 5 minutes at room temperature. For TLC analysis, reactions are then terminated by the addition of 105 μl 1N HCl followed by 160 μl CHCl3:MeOH (1:1). The biphasic mixture is vortexed, briefly centrifuged, and the organic phase is transferred to a new tube using a gel loading pipette tip precoated with CHCl3. […] The TLC plates are then dried, exposed to a phosphorimager screen (Storm, Amersham), and quantitated.
Briefly, the assay is a time resolved FRET assay that indirectly measures PIP3 product formed by the activity of a PI3-K. The kinase reaction is performed in a microtitre plate (e.g., a 384 well microtitre plate). The total reaction volume is approximately 20 ul per well. In the first step, each well receives 2 ul of test compound in 20% dimethylsulphoxide resulting in a 2% DMSO final concentration. Next, approximately 14.5 ul of a kinase/PIP2 mixture (diluted in 1× reaction buffer) is added per well for a final concentration of 0.25-0.3 ug/ml kinase and 10 uM PIP2. The plate is sealed and incubated for 15 minutes at room temperature. To start the reaction, 3.5 ul of ATP (diluted in 1× reaction buffer) is added per well for a final concentration of 10 uM ATP. The plate is sealed and incubated for 1 hour at room temperature. The reaction is stopped by adding 5 ul of Stop Solution per well and then 5 ul of Detection Mix is added per well. The plate is sealed, incubated for 1 hour at room temperature, and then read on an appropriate plate reader. Data is analyzed and IC50s are generated using GraphPad Prism 5.
Description for mTOR: The compounds described herein can be tested against recombinant mTOR (Invitrogen) in an assay containing 50 mM HEPES, pH 7.5, 1 mM EGTA, 10 mM MgCl2, 2.5 mM, 0.01% Tween, 10 μM ATP (2.5 μCi of μ-32P-ATP), and 3 μg/mL BSA. Rat recombinant PHAS-1/4EBP1 (Calbiochem; 2 mg/mL) is used as a substrate. Reactions are terminated by spotting onto nitrocellulose, which is washed with 1M NaCl/1% phosphoric acid (approximately 6 times, 5-10 minutes each). Sheets are dried and the transferred radioactivity quantitated by phosphorimaging.
This assay is a time resolved FRET platform that measures the phosphorylation of GFP labeled 4EBP1 by mTOR kinase. The kinase reaction is performed in a white 384 well microtitre plate. The total reaction volume is 20 ul per well and the reaction buffer composition is 50 mM HEPES pH7.5, 0.01% Polysorbate 20, 1 mM EGTA, 10 mM MnCl2, and 2 mM DTT. In the first step, each well receives 2 ul of test compound in 20% dimethylsulphoxide resulting in a 2% DMSO final concentration. Next, 8 ul of mTOR diluted in reaction buffer is added per well for a 60 ng/ml final concentration. To start the reaction, 10 ul of an ATP/GFP-4EBP1 mixture (diluted in reaction buffer) is added per well for a final concentration of 10 uM ATP and 0.5 uM GFP-4EBP1. The plate is sealed and incubated for 1 hour at room temperature. […] The plate is sealed, incubated for 1 hour at room temperature, and then read on a plate reader set up for LanthaScreen™ TR-FRET. Data is analyzed and IC50s are generated using GraphPad Prism 5.

Usually IC50 stands for the concentration that inhibits the measured activity by half. As for `CC(=O)Nc1nc2cc(-c3nn(C(C)C)c4ncnc(N)c34)ccc2o1` [compound 2], the IC50 against PI3K γ was less than 1 µM; against PI3K δ, less than 1 µM; at mTOR, less than 0.1 µM; at PI3K β, greater than 10 µM; against PI3K α, less than 10 µM.
In the case of `CC(=O)Nc1nc2ccc(-c3nn(C(C)C)c4ncnc(N)c34)cc2o1` [compound 3], the IC50 on PI3K α is greater than 10 µM.
For the compound `CC(C)n1nc(-c2ccc3nc(N)oc3c2)c2c(N)ncnc21` [compound 4], the IC50 was less than 1 µM against PI3K γ; less than 1 µM against PI3K δ; less than 1 µM at mTOR; less than 10 µM against PI3K β; less than 10 µM on PI3K α.
With `Nc1nc2cc(-c3nn(C4CCOCC4)c4ncnc(N)c34)ccc2o1` [compound 5], the 50% inhibitory concentration (IC50) against PI3K γ was less than 0.1 µM; against PI3K δ it was less than 1 µM; against mTOR it was less than 0.1 µM; on PI3K β, less than 10 µM; against PI3K α it was less than 1 µM.
As for `Nc1nc2cc(-c3nn(C4CCC(N5CCOCC5)CC4)c4ncnc(N)c34)ccc2o1` (stereo not drawn) [compound 6], the IC50 against PI3K δ is less than 1 µM; on PI3K β, greater than 10 µM.
Consider `CC(=O)N1CCC(n2nc(-c3ccc4oc(N)nc4c3)c3c(N)ncnc32)CC1` [compound 7], for which the IC50 at PI3K γ is less than 10 µM; at PI3K δ, less than 1 µM; against PI3K β, less than 10 µM; on PI3K α it was less than 1 µM.
For the compound `CC(C)n1cc(-c2ccc3oc(N)nc3c2)c2c(N)ncnc21` [compound 8], the IC50 was less than 1 µM against PI3K γ; less than 1 µM against PI3K δ; less than 0.1 µM against mTOR; greater than 10 µM against PI3K β; less than 1 µM against PI3K α.
For `Nc1nc2cc(-c3cn(C4CCOCC4)c4ncnc(N)c34)ccc2o1` [compound 9], the IC50 at PI3K β was greater than 10 µM; at PI3K α, less than 10 µM.
`CC(C)n1nc(-c2ccc3onc(N)c3c2)c2c(N)ncnc21` [compound 10] registered an IC50 at mTOR of less than 10 µM.
Same read-out and setting: then `CC(=O)Nc1noc2cc(-c3nn(C(C)C)c4ncnc(N)c34)ccc12` [compound 11], with less than 1 µM; and `CC(C)n1nc(-c2ccc3c(N)noc3c2)c2c(N)ncnc21` [compound 12], with less than 1 µM.
With `CNc1noc2cc(-c3nn(C(C)C)c4ncnc(N)c34)ccc12` [compound 13], the IC50 at PI3K γ is less than 1 µM; against PI3K δ, less than 1 µM; against mTOR, less than 10 µM; on PI3K α, less than 10 µM.
With `CC(C)n1nc(-c2ccc3c(NC4CC4)noc3c2)c2c(N)ncnc21` [compound 14], the IC50 at PI3K δ, against mTOR and against PI3K α was less than 10 µM each time.
`CC(C)n1nc(-c2ccc3onc(NC4CC4)c3c2)c2c(N)ncnc21` [compound 16]: the IC50 at PI3K δ, against mTOR and against PI3K α was greater than 10 µM each time.
With `Nc1noc2ccc(-c3nn(CC(=O)N4CCOCC4)c4ncnc(N)c34)cc12` [compound 17], the IC50 at PI3K γ, against PI3K δ, against mTOR and against PI3K α was greater than 10 µM throughout.
As to `COC(=O)Nc1noc2ccc(-c3nn(C(C)C)c4ncnc(N)c34)cc12` [compound 19], the IC50 on PI3K δ is greater than 10 µM; against mTOR, less than 10 µM; against PI3K β it was greater than 10 µM.
Take `COC(=O)Nc1noc2cc(-c3nn(C(C)C)c4ncnc(N)c34)ccc12` [compound 20]: the IC50 against PI3K δ is less than 10 µM; against mTOR, less than 10 µM; against PI3K β it was greater than 10 µM.
Turning to `Cc1nc(N)c2c(-c3ccc4oc(N)nc4c3)nn(C(C)C)c2n1` [compound 21], the IC50 was greater than 10 µM at PI3K γ; greater than 10 µM against PI3K δ; less than 1 µM at mTOR; greater than 10 µM against PI3K β; greater than 10 µM at PI3K α.
As to `CC(CO)n1nc(-c2ccc3oc(N)nc3c2)c2c(N)ncnc21` (stereo not drawn) [compound 23], the IC50 at PI3K γ is less than 10 µM; at PI3K δ it was less than 10 µM; against mTOR, less than 0.1 µM; on PI3K β it was greater than 10 µM; against PI3K α, less than 10 µM.
Turning to `Nc1nc2cc(-c3nn(C4CC(=O)C4)c4ncnc(N)c34)ccc2o1` [compound 25], the IC50 was less than 0.1 µM on PI3K γ, less than 1 µM at PI3K δ, less than 10 µM at PI3K β and less than 1 µM against PI3K α.
Consider `Nc1nc2cc(-c3nn(C4CC(O)C4)c4ncnc(N)c34)ccc2o1` (stereo not drawn) [compound 26], for which the IC50 against PI3K γ and on PI3K α was less than 0.1 µM each time.
As for `CC(C)(CO)n1nc(-c2ccc3oc(N)nc3c2)c2c(N)ncnc21` [compound 27], the IC50 against PI3K γ was greater than 10 µM; on PI3K δ, less than 1 µM; against PI3K β it was greater than 10 µM; at PI3K α it was less than 10 µM.
